Legend:
[1] = biological target: T1, Serine/threonine-protein kinase PLK4 (Homo sapiens) (UniProt O00444); assay: Inhibition of human recombinant PLK4 at 500 nM in presence of ATP by radiometric assay relative to control
T1 sequence (whole entry): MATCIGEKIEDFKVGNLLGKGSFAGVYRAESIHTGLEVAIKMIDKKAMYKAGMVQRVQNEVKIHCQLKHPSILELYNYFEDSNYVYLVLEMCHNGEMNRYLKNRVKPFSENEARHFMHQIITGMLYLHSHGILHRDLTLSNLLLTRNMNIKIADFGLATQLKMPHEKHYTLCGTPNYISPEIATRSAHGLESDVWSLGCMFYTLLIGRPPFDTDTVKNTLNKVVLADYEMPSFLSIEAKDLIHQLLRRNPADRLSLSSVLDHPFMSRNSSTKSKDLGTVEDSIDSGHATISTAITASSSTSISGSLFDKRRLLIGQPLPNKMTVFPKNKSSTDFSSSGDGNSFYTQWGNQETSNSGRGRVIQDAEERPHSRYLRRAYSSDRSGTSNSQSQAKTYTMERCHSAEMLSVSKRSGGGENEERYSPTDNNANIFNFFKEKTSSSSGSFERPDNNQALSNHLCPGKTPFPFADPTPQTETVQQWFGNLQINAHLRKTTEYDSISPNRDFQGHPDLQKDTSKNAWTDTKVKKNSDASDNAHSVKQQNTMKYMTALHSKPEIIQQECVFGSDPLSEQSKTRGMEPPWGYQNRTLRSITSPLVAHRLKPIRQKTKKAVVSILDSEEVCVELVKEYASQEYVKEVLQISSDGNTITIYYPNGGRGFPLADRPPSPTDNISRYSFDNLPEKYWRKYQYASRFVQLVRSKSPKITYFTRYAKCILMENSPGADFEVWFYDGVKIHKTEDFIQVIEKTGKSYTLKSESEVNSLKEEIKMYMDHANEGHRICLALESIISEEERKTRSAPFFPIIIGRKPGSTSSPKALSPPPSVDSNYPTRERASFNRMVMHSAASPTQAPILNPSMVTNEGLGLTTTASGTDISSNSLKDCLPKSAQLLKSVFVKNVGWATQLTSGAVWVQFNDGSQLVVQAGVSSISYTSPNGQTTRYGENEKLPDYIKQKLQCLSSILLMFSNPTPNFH

[2] = biological target: Tyrosine-protein kinase BTK (Homo sapiens) (UniProt Q06187); assay: Inhibition of human recombinant BTK at 500 nM in presence of ATP by radiometric assay relative to control
[3] = biological target: T2, Serine/threonine-protein kinase ULK2 (Homo sapiens) (UniProt Q8IYT8); assay: Inhibition of human recombinant ULK2 at 500 nM in presence of ATP by radiometric assay relative to control
T2 sequence (whole entry): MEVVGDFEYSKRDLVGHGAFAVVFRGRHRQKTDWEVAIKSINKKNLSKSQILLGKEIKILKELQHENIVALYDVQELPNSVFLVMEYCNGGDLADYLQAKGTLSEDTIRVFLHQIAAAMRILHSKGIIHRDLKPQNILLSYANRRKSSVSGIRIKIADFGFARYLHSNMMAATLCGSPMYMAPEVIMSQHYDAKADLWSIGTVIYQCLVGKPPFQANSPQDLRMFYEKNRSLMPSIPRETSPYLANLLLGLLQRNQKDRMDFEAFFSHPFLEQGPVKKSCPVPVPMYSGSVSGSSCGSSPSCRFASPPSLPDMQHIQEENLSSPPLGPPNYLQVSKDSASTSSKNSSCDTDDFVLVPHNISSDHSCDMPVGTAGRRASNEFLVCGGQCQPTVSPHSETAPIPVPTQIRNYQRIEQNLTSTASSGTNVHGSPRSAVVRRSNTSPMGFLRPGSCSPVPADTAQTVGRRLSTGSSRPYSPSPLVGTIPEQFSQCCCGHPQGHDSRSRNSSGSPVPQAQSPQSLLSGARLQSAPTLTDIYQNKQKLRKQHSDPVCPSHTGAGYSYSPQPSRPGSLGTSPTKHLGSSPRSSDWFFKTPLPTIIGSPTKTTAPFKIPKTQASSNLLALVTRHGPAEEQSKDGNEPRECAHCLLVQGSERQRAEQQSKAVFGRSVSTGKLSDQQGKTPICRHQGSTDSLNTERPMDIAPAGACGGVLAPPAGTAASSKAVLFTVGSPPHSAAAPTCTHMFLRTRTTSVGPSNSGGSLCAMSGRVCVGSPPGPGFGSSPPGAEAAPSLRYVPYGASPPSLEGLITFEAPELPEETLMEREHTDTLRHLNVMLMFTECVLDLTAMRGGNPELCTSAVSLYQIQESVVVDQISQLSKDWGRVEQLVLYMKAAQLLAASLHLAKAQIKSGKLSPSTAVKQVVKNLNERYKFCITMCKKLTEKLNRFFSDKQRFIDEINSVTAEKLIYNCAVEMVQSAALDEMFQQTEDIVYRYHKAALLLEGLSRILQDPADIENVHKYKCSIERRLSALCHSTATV

[4] = biological target: T3, Tyrosine-protein kinase ITK/TSK (Homo sapiens) (UniProt Q08881); assay: Inhibition of human recombinant ITK at 500 nM related to control ULK1
T3 sequence (whole entry): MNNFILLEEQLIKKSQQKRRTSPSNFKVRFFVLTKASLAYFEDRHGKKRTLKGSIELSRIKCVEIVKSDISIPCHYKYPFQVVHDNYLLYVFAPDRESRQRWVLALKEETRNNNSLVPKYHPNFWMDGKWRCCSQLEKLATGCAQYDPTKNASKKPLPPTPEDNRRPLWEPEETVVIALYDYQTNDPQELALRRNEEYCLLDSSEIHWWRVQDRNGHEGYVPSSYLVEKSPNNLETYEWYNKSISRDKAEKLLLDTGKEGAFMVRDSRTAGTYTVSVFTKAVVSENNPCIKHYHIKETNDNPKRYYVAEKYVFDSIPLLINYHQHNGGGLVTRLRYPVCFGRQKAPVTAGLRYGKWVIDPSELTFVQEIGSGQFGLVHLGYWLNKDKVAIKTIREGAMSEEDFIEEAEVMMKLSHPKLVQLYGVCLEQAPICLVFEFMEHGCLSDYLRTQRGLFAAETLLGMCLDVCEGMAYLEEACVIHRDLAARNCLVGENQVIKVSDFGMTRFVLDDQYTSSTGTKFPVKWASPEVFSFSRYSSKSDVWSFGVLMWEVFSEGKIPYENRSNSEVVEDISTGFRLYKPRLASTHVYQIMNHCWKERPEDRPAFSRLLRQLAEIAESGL

[5] = biological target: Protein-tyrosine kinase 6 (Homo sapiens) (UniProt Q13882); assay: Inhibition of human recombinant BRK at 15 nM related to control ULK1
[6] = biological target: Eukaryotic translation initiation factor 2-alpha kinase 1 (Homo sapiens) (UniProt Q9BQI3); assay: Inhibition of human recombinant HRI at 40 nM related to control ULK1
[7] = biological target: Protein kinase C delta type (Homo sapiens) (UniProt Q05655); assay: Inhibition of human recombinant PKCd at 40 nM in presence of ATP by radiometric assay relative to control
Protein kinase C delta type (Homo sapiens), sequence (Q05655 whole entry, looked up): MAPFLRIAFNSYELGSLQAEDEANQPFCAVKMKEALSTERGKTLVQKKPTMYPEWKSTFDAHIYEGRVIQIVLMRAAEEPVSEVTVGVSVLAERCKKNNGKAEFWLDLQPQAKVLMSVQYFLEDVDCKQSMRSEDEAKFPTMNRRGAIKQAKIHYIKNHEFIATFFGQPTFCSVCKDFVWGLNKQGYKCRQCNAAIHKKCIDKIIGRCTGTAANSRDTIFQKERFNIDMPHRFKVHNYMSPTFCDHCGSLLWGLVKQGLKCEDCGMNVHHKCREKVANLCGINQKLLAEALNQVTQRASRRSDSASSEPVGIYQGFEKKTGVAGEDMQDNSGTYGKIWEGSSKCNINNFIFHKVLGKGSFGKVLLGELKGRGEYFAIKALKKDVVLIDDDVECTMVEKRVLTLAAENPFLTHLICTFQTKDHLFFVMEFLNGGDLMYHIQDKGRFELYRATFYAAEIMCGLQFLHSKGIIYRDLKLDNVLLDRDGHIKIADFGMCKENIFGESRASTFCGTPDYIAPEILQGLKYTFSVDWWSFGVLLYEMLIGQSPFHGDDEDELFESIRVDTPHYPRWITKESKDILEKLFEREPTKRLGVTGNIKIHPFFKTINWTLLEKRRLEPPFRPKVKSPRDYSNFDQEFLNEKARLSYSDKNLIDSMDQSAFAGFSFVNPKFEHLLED

Eukaryotic translation initiation factor 2-alpha kinase 1 (Homo sapiens), sequence (Q9BQI3 whole entry): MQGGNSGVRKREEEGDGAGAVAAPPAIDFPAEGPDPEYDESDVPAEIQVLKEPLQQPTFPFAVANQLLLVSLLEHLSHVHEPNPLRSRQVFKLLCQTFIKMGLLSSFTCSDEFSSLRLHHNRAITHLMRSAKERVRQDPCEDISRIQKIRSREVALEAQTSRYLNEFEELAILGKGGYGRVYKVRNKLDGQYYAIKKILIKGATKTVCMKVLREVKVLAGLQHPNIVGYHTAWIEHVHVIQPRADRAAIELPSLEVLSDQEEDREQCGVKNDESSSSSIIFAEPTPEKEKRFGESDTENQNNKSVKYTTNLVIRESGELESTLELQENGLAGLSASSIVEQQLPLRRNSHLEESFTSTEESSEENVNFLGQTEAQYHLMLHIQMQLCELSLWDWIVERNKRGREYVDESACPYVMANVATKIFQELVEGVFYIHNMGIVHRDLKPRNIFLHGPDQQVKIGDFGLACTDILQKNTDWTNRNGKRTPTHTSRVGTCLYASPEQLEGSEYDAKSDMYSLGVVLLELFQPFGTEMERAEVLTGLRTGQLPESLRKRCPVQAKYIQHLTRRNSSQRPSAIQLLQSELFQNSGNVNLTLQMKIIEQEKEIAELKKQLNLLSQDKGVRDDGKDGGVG
Protein-tyrosine kinase 6 (Homo sapiens), sequence (Q13882 whole entry, looked up): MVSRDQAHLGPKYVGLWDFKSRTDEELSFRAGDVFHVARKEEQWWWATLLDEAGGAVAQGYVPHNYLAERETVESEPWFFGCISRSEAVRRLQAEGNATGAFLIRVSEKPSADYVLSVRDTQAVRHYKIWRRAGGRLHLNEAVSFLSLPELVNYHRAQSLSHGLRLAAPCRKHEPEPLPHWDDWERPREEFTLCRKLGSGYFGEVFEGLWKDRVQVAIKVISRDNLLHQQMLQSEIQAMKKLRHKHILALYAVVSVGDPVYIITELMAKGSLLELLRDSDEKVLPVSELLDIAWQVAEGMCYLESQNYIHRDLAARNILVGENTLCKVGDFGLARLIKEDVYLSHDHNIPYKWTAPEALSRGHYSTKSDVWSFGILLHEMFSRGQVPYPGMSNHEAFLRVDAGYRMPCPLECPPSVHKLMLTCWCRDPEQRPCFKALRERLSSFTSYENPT
Tyrosine-protein kinase BTK (Homo sapiens), sequence (Q06187 whole entry): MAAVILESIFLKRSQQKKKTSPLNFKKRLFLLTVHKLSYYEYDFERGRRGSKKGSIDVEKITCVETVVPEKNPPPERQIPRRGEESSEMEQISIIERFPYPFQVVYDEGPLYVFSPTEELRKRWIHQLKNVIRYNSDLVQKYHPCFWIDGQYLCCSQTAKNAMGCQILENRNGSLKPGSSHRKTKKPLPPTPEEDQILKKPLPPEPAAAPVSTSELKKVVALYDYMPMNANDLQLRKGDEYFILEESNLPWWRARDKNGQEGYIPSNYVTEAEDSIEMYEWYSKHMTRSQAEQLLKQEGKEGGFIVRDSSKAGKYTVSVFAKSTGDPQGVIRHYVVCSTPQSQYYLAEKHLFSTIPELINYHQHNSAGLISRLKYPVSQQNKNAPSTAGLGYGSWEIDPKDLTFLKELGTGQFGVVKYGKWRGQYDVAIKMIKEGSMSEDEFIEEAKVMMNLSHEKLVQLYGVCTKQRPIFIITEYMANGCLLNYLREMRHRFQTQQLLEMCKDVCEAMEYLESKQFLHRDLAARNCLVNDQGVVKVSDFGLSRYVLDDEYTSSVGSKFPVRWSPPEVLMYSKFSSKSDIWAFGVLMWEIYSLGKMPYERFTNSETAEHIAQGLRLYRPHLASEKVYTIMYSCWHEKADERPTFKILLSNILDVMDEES

`CNC(=O)c1ccccc1Oc1nc(Nc2cc(OC)c(OC)c(OC)c2)ncc1Br` gave an inhibition [1] of 46%, an inhibition [2] of 0% and an inhibition [3] of 48%. For the same molecule, the fold change (FC) [4] was 0.01.

`CC(C)[C@H](NC(=O)c1cc(-c2cnn3cc(-c4ccc(OCCN5CCCCC5)cc4)cnc23)cs1)C(F)(F)F` was tested, and the fold change (FC) [5] was 0.09.

Molecule `O=C(N[C@@H](C1CC1)C(F)(F)F)c1cc(-c2cnn3cc(-c4ccc(F)cc4)cnc23)cs1` has a fold change (FC) [6] of 0.01 and an inhibition [7] of 3%.
